Experimental data: article PMC3871529, “At a Supra-Physiological Concentration, Human Sexual Hormones Act as Quorum-Sensing Inhibitors” (PLoS ONE, 2013)
Like-named read-outs stand apart in the source and are kept apart here.

Experiments:
[1] = tested on: Agrobacterium biosensor cells; test: Minimal bactericidal concentration (MBC); type: cell-based, Agrobacterium tumefaciens; conditions: 99.9% reduction of 10^5 CFU/ml after 36 h at 30°C
Description: Aside from the effect of QSI on QS regulation, the toxicity of these compounds was tested on bacterial cells by measuring two parameters: the minimal inhibitory concentration (MIC) and minimal bactericidal concentration (MBC). MIC, which is the lowest concentration of QSI (µg/ml) inhibiting any visible culture after 36 h of incubation at 30°C, was estimated by culturing 10^5 CFU/ml of the Agrobacterium biosensor cells in the presence of different concentrations of the QSI. MBC, which is the lowest concentration of QSI (µg/ml) that results in a 99.9% reduction of the initial bacterial population (10^5 CFU/ml) after 36 h of incubation at 30°C in the presence of different concentrations of QSI, was estimated by plating 100 µL of the Agrobacterium cultures on agar LBm plates. After an incubation of 48 h at 30°C, CFU were counted and the MBC values were calculated.

[2] = tested on: QS-signal accumulation in P. aeruginosa; test: AHL (C4-HSL, OC12-HSL) quantification in P. aeruginosa cultures by mass spectrometry; type: cell-based, Pseudomonas aeruginosa; conditions: QSI at 0.5 mg/ml, 18-hour
Description: Figure 5 QSIs modulated QS-signal accumulation in P. aeruginosa. Growth kinetics (n = 6) of P. aeruginosa was measured (OD600) in the presence of the QSIs (estradiol, estrone, estriol, hordenine and 4-NPO) at 0.5 mg/ml using DMSO as a negative control. Cell counts were assessed (CFU/ml) at 8- and 18-hour, and C4-HSL and OC12-HSL concentration (µM) were determined in the bacterial cultures at 18-hour. Statistically different values (Student's t test with α = 0.01) are noted by asterisks.
QS gene transcription in P. aeruginosa PAO1 was monitored using PAO1 strains carrying various gene promoters fused to a lacZ reporter gene, as described in Vandeputte et al., 2010 and Table 1. PAO1 reporter strains were prepared according to Vandeputte et al.. Briefly, 18-hours-old liquid cultures (50 µl) were diluted in order to obtain a starting OD600 nm comprised between 0.02 and 0.03 in fresh LB medium supplemented with 50 mM MOPS pH 7.0 (1 ml), carbenicillin (300 µg/ml) and 10 µl of the QSIs to be tested (OD were measured using a SpectraMax M2 device from Molecular Devices). Test and control QSIs were diluted in 100% DMSO (resulting after addition to the growth medium in a 1% final concentration of DMSO). Cultures were incubated for 18 hours at 37°C with agitation. After incubation, cell densities were assessed spectrophotometrically (OD600 nm) and β-galactosidase assays were performed using the substrate o-nitrophenyl-β-D-galactopyranoside as described previously, [29]. Promoterless-lacZ fusions were used as controls. AHLs were quantified as described in Vandeputte et al.. All tests were performed in quintuplicates and three biological repetitions. The statistical significance of each test was evaluated by conducting Student's t tests and two-way ANOVA combined with the Tukey post-analysis test using the GraphPad Prism software and p values≤0.01 were considered significant.

LasR = target: T1, LasR (Pseudomonas aeruginosa, UniProt P25084); test: E. coli bioindicator expressing LasR (pAL105, lasI::luxCDABE luminescence); type: cell-based; conditions: OC12-HSL 100 µM; QSIs at 0.1 mg/ml, naringenin and naringin at 0.5 mg/ml
T1 construct: expressed in transfected cells; host or cells: Escherichia coli JLD271 carrying pAL105 (pSB401-derivative, lasR+ lasI::luxCDABE)
Description: We determined whether the AHL-binding transcriptional factors LasR and RhlR were impaired in their capacity to activate expression of the QS-regulated genes in the presence of various QSIs. This was achieved by using two E. coli bioindicator strains expressing either LasR or RhlR proteins and harboring an appropriate reporter lux operon for measuring their transcriptional activity in the presence of OC12-HSL at 100 µM and C4-HSL at 10 µM, respectively. Adding C4-HSL to the pAL101-bioindicator or OC12-HSL to the pAL105-bioindicator induced the expression of the reporter lux operon and the consequent production of luminescence. In contrast, only background levels of luminescence were detected in control strains harboring the plasmids pAL102 or pAL106, which lacks the rhlR or lasR gene, respectively.
Figure 7 QSIs modulated activity of the AHL-sensors in P. aeruginosa. Luminescence of the reporting operon lux, expressed in relative light units (RLU/OD600), was measured in E. coli bioindicator strains harboring the LasR (A) and RhlR (B) AHL-sensing systems of P. aeruginosa in the presence of […]. The QSIs estradiol, estrone, estriol and hordenine were added at 0.1 mg/ml, while naringenin and naringin, added at 0.5 mg/ml, were used as QSI-reference and non-QSI reference, respectively. Each test (n = 6) was compared with the DMSO-condition using Student's t test. Asterisks indicate statistically different data (p value of ≤0.01).
Escherichia coli JLD271 biosensor strains harboring LasR- and RhlR-based plasmids pAL105 and pAL101 and control plasmids pAL106 (LasR^-) and pAL102 (RhlR^−) (Table 1) were prepared according to Vandeputte et al.. Briefly, these strains were grown in LB medium supplemented with tetracycline (10 µg/ml) and chloramphenicol (25 µg/ml) for 24 h. Then 50-µl portions of the cultures were subcultured in 1 ml of LB medium (the starting OD600 ranged between 0.02 and 0.025 corresponding to 5.10^6 CFU) supplemented with 10 µl of DMSO (1% [vol/vol] final), 10 µl of naringenin or naringin dissolved in DMSO (2 mM, final concentration), or 10 µl of the molecule to be tested. To induce the expression of the lux operon, 0, 1, 10 or […] of C4-HSL was added to pAL101 and pAL102, while OC12-HSL was added to pAL105 and pAL106. After incubation for 2 h at 37°C with agitation (175 rpm), 200 µl of culture was transferred to 96-well OptiPlate-96 F plates from Perkin-Elmer, and the luminescence of each sample was measured by using a TopCount NXT device from Perkin-Elmer. The LasR(pAL106) and RhlR(pAL102) biosensors were used for background subtraction, and the OD600 values were measured to account for the differences in cell density. All experiments were performed in six replicates. The statistical significance of each test was evaluated by conducting Student's t tests using the GraphPad Prism software, and p values ≤0.05 were considered significant. Naringenin (4′,5,7-trihydroxyflavanone), naringin (4′,5,7-trihydroxyflavanone 7-rhamnoglucoside), the AHLs OC12-HSL and C4-HSL were purchased from Sigma-Aldrich and dissolved freshly in 100% DMSO before use. Tested QSIs were dissolved in 100% DMSO before use.

T1 sequence (P25084 whole entry): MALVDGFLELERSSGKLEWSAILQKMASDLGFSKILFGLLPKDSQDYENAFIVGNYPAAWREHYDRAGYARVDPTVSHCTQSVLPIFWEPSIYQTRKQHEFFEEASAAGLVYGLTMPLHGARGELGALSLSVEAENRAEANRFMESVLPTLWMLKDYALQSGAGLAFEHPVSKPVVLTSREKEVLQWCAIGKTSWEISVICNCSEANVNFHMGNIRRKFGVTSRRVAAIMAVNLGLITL

Row | Molecule | MBC [1] [µg/mL] | C4-HSL concentration in cell cultures [2] | OC12-HSL concentration in cell cultures [2] | effect on LasR functionality (lux luminescence) (LasR) | MBC ([1]; Agrobacterium, read-out: MBC) [µg/mL]
1 | 3-Hydroxy-13-methyl-6,7,8,9,11,12,13,14,15,17-decahydro-cyclopenta[a] phenanthren-16-one [Compound 729, reference compound] | >100 | reduction | reduction | significant impact | 
2 | CN(C)CCc1ccc(O)cc1 [Compound 3499, hordenine] |  | reduction | reduction | significant impact | > 100
3 | C[C@]12CC[C@@H]3c4ccc(O)cc4CC[C@H]3[C@@H]1C[C@@H](O)[C@@H]2O [Estriol, estriol] |  | reduction | reduction | significant impact | > 100
